Assay results from publication PMC3626250, “Effects of Borneol on Pharmacokinetics and Tissue Distribution of Notoginsenoside R1 and Ginsenosides Rg1 and Re in Panax notoginseng in Rabbits” (Journal of Analytical Methods in Chemistry, 2013).
Read-outs that look alike come from different tables or passages of the source. Marks after values point to notes of the source that are not given here.

Tests used:
[1] = Pharmacokinetics study in rabbits after oral Panax notoginseng extract with or without Borneol (plasma, SPE-HPLC-MS); format: in vivo, New Zealand rabbits; conditions: for Cmax / Tmax / CL/F / half-life / AUC(0-inf) / AUC(0-t): New Zealand, rabbit, plasma; for CL/F: read-out: CL/F; for half-life: read-out: t 1/2β; for AUC(0-inf) / AUC(0-t): po
Method: Liquid chromatography was carried out on an Agilent 1100 HPLC system with an auto sampler, a quaternary pump and a vacuum degasser (Waldoboro, Frankfurt, Germany). Operations were controlled by Agilent Chemstation 4.2 software (Littleforts, Philadelphia, USA). Separations were achieved on a reversed-phase HPLC column (Zorbax SB-C18 150 × 2.1 mm, 5.0 μm particle size). A solution of acetonitrile and water (V : V, 20 : 80) with 0.1% (V : V) ammonium formate was used as the mobile phase. The flow rate was set at 0.3 mL·min^−1 and the column temperature was 25°C. Under these conditions, NGR1, GRg1, and GRe in plasma samples were separated efficiently without any interferences.
MS^n detection was performed on an Agilent SL trap MS system (Waldoboro, Frankfurt, Germany). The ion source-dependent (electrospray ionization) conditions were the same for all analyses with a spraying voltage of −4500 V in the negative ion mode. The pressure of the nebulizing gas (nitrogen) was set at 35 p.s.i. The flow rate of the drying gas (nitrogen) was set at 7.0 L·min^−1 with the temperature of 325°C. The collision gas (He) for the MS^n mode at trap was set at flow of 4 (instrument unit). The voltage of the capillary was set at 4000 V, and its end plate offset was −500 V. Scan range was from 500 to 1500 m/z.
(§1) Frozen plasma and tissue samples were thawed in a water bath at 37°C and were then vortexed followed by centrifuging at 5000 r·min^−1 for 5 min. An aliquot of 1.0 mL of the supernatant from each sample was loaded onto C18 Bond Elute Solid phase extraction (SPE) cartridges (1000 mg, 1 cc reservoir, Varian, Harbor City, CA, USA) pretreated with 2.0 mL hexane, isopropanol, methanol, and water, sequentially. The SPE cartridges were then washed with 1.0 mL water, 20% methanol/water solution, 40% methanol/water solution, and 60% methanol/water solution, sequentially. Finally, analytes were eluted twice with 1.0 mL of 70% methanol/water solution. The eluant was evaporated to dryness under nitrogen. The residues were then reconstituted in 1.0 mL mobile phase. An aliquot of 10 μL was injected into the LC-MS system.
Eighteen rabbits were randomly divided into three groups of 6 subjects and were orally given 3.0 mL·kg^−1 normal saline, 3.0 mL·kg^−1 Panax notoginseng extract, and 3.0 mL·kg^−1 Panax notoginseng extract combined with Borneol, respectively. Plasma samples were collected in heparinized tubes from the central ear artery at 0.0, 5.0, 10.0, 20.0, 30.0, 45.0, 60.0, 75.0, 90.0, 120.0, 180.0, 300.0 and 480.0 min after dose. After each sampling, the same volume of 0.9% saline solution was injected from the ear vein to compensate the loss of blood. The plasma obtained was frozen at −70°C for storage and was processed prior to analysis with the proposed method as described in Section 2.6.
Statistical analysis of the biological data was performed using the Student's t-test. The drug analysis system 2.0 (DAS 2.0, T.C.M., Shanghai, China) was used to calculate the pharmacokinetic parameters, such as the area under curve (AUC), the maximum plasma concentration (C max), the time needed to reach the maximum plasma concentration (t max) and the half-life of absorption, and distribution and elimination (t 1/2Ka, t 1/2α, t 1/2β).

[2] = Tissue distribution study in rabbits after oral Panax notoginseng extract with or without Borneol; format: in vivo, New Zealand rabbits; conditions: New Zealand, rabbit; for Kp at 1 h: oral, Borneol combined with Panax notoginseng; for concentration at 0.5 h / concentration at 1 h / concentration at 3 h: po; for concentration at 3 h: 3 mL·kg^−1, 3.0 h
Method: as §1
One group of rabbits (n = 18) was orally administered a dose of 3.0 mL·kg^−1 Panax notoginseng extract, while another group of rabbits (n = 18) was orally given 3.0 mL·kg^−1 Panax notoginseng extract combined with Borneol. At 0.5, 1, and 3 h after administration, blood samples were collected from the central ear artery of six rabbits from each group, and the heart, liver, lung, kidney, and brain were immediately removed after animals were sacrificed by decapitation. An accurately weighed amount of tissue (1 g) was collected to be rinsed, dried, minced, and homogenized (400 r·min^−1) in normal saline (1.5 mL). All of the samples were stored at −70°C and were processed prior to analysis with the proposed method as described in Section 2.6.

[3] = oral 3.0 mL·kg^−1 Panax notoginseng extract
[4] = oral 3.0 mL·kg^−1 Panax notoginseng extract combined with Borneol

## CC(C)=CCC[C@](C)(O[C@@H]1O[C@H](CO)[C@@H](O)[C@H](O)[C@H]1O)[C@H]1CC[C@]2(C)[C@@H]1[C@H](O)C[C@@H]1[C@@]3(C)CC[C@H](O)C(C)(C)[C@@H]3[C@@H](O[C@@H]3O[C@H](CO)[C@@H](O)[C@H](O)[C@H]3O[C@@H]3O[C@@H](C)[C@H](O)[C@@H](O)[C@H]3O)C[C@]12C [GRe, ginsenoside Re]
[1]; [3]
  Cmax: 1920 ± 220 ng/mL
  Tmax: 45 min
  CL/F: 150 ± 30 mL/min/kg
  half-life: 69.3 ± 5.8 min
  AUC(0-inf): 8910 ng·h/mL
  AUC(0-t): 7080 ng·h/mL
  K 10: 0.007 ± 0.003 min⁻¹
  K 12: 0.012 ± 0.004 min⁻¹
  K 21: 0.011 ± 0.005 min⁻¹
  K a: 0.025 ± 0.004 min⁻¹
  T lag: 0 ± 0 min
  V/F: 20.0 ± 4.7 L/kg
  t 1/2Ka: 27.7 ± 3.7 min
  t 1/2α: 35.0 ± 1.9 min
  α: 0.020 ± 0.004 min⁻¹
  β: 0.010 ± 0.002 min⁻¹
[1]; [4]
  Cmax: 3040 ± 240 ng/mL
  Tmax: 45 min
  CL/F: 143 ± 54 mL/min/kg
  half-life: 69.3 ± 15.2 min
  AUC(0-inf): 23300 ng·h/mL
  AUC(0-t): 8750 ng·h/mL
  K 10: 0.005 ± 0.001 min⁻¹
  K 12: 0.022 ± 0.005** min^−1
  K 21: 0.011 ± 0.003 min⁻¹
  K a: 0.034 ± 0.003** min^−1
  T lag: 0.61 ± 0.47 min
  V/F: 31.1 ± 6.9 L/kg
  t 1/2Ka: 20.3 ± 4.2 min
  t 1/2α: 25.2 ± 2.4 min
  α: 0.027 ± 0.008 min⁻¹
  β: 0.010 ± 0.001 min⁻¹
[2]; brain, peak levels at 1.0 h, read-out: level in brain, fold higher than the plasma concentrations
  Kp at 1 h: 1.14
[2]; brain, 3 mL·kg^−1, 0.5 h, oral Panax notoginseng with Borneol, read-out: Concentration in brain
  concentration at 0.5 h: 1800 ± 420 ng/g
[2]; brain, 3 mL·kg^−1, 0.5 h, oral Panax notoginseng, read-out: Concentration in brain
  concentration at 0.5 h: 1050 ± 420 ng/g
[2]; brain, 3 mL·kg^−1, 1.0 h, oral Panax notoginseng, read-out: Concentration in brain
  concentration at 1 h: 1210 ± 280 ng/g
[2]; brain, oral Panax notoginseng with Borneol, read-out: Concentration in brain
  concentration at 3 h: 1650 ± 230 ng/g
[2]; brain, oral Panax notoginseng, read-out: Concentration in brain
  concentration at 3 h: 630 ± 120 ng/g
[2]; brain, 1.0 h, oral Panax notoginseng with Borneol, read-out: Concentration in brain
  concentration at 1 h: 2760 ± 630 ng/g
[2]; heart, peak levels at 1.0 h, read-out: level in heart, fold higher than the plasma concentrations
  Kp at 1 h: 1.35
[2]; heart, 3 mL·kg^−1, 0.5 h, oral Panax notoginseng with Borneol, read-out: Concentration in heart
  concentration at 0.5 h: 2810 ± 740 ng/g
[2]; heart, 3 mL·kg^−1, 0.5 h, oral Panax notoginseng, read-out: Concentration in heart
  concentration at 0.5 h: 1650 ± 530 ng/g
[2]; heart, 3 mL·kg^−1, 1.0 h, oral Panax notoginseng, read-out: Concentration in heart
  concentration at 1 h: 2110 ± 280 ng/g
[2]; heart, oral Panax notoginseng with Borneol, read-out: Concentration in heart
  concentration at 3 h: 2240 ± 540 ng/g
[2]; heart, oral Panax notoginseng, read-out: Concentration in heart
  concentration at 3 h: 1140 ± 130 ng/g
[2]; heart, 1.0 h, oral Panax notoginseng with Borneol, read-out: Concentration in heart
  concentration at 1 h: 3280 ± 430 ng/g
[2]; kidney, at 1.0 h, read-out: level in kidney, fold higher than the plasma concentrations
  Kp at 1 h: 1
[2]; kidney, 3 mL·kg^−1, 0.5 h, oral Panax notoginseng with Borneol, read-out: Concentration in kidney
  concentration at 0.5 h: 2840 ± 530 ng/g
[2]; kidney, 3 mL·kg^−1, 0.5 h, oral Panax notoginseng, read-out: Concentration in kidney
  concentration at 0.5 h: 1630 ± 180 ng/g
[2]; kidney, 3 mL·kg^−1, 1.0 h, oral Panax notoginseng, read-out: Concentration in kidney
  concentration at 1 h: 1530 ± 220 ng/g
[2]; kidney, oral Panax notoginseng with Borneol, read-out: Concentration in kidney
  concentration at 3 h: 1610 ± 450 ng/g
[2]; kidney, oral Panax notoginseng, read-out: Concentration in kidney
  concentration at 3 h: 1150 ± 130 ng/g
[2]; kidney, 1.0 h, oral Panax notoginseng with Borneol, read-out: Concentration in kidney
  concentration at 1 h: 2430 ± 290 ng/g
[2]; liver, peak levels at 1.0 h, read-out: level in liver, fold higher than the plasma concentrations
  Kp at 1 h: 1.97
[2]; liver, 3 mL·kg^−1, 0.5 h, oral Panax notoginseng with Borneol, read-out: Concentration in liver
  concentration at 0.5 h: 3600 ± 460 ng/g
[2]; liver, 3 mL·kg^−1, 0.5 h, oral Panax notoginseng, read-out: Concentration in liver
  concentration at 0.5 h: 990 ± 330 ng/g
[2]; liver, 3 mL·kg^−1, 1.0 h, oral Panax notoginseng, read-out: Concentration in liver
  concentration at 1 h: 1300 ± 250 ng/g
[2]; liver, oral Panax notoginseng with Borneol, read-out: Concentration in liver
  concentration at 3 h: 2630 ± 810 ng/g
[2]; liver, oral Panax notoginseng, read-out: Concentration in liver
  concentration at 3 h: 690 ± 110 ng/g
[2]; liver, 1.0 h, oral Panax notoginseng with Borneol, read-out: Concentration in liver
  concentration at 1 h: 4770 ± 420 ng/g
[2]; lung, peak levels at 1.0 h, read-out: level in lung, fold higher than the plasma concentrations
  Kp at 1 h: 1.24
[2]; lung, 3 mL·kg^−1, 0.5 h, oral Panax notoginseng with Borneol, read-out: Concentration in lung
  concentration at 0.5 h: 2480 ± 690 ng/g
[2]; lung, 3 mL·kg^−1, 0.5 h, oral Panax notoginseng, read-out: Concentration in lung
  concentration at 0.5 h: 700 ± 410 ng/g
[2]; lung, 3 mL·kg^−1, 1.0 h, oral Panax notoginseng, read-out: Concentration in lung
  concentration at 1 h: 920 ± 130 ng/g
[2]; lung, oral Panax notoginseng with Borneol, read-out: Concentration in lung
  concentration at 3 h: 1530 ± 450 ng/g
[2]; lung, oral Panax notoginseng, read-out: Concentration in lung
  concentration at 3 h: 310 ± 440 ng/g
[2]; lung, 1.0 h, oral Panax notoginseng with Borneol, read-out: Concentration in lung
  concentration at 1 h: 2990 ± 170 ng/g
[2]; plasma, 3 mL·kg^−1, 0.5 h, oral Panax notoginseng, read-out: Concentration in plasma
  concentration at 0.5 h: 1780 ± 110 ng/mL
[2]; plasma, 3 mL·kg^−1, 1.0 h, oral Panax notoginseng, read-out: Concentration in plasma
  concentration at 1 h: 1900 ± 150 ng/mL
[2]; plasma, oral Panax notoginseng with Borneol, read-out: Concentration in plasma
  concentration at 3 h: 870 ± 40 ng/mL
[2]; plasma, oral Panax notoginseng, read-out: Concentration in plasma
  concentration at 3 h: 790 ± 20 ng/mL
[2]; plasma, 0.5 h, oral Panax notoginseng with Borneol, read-out: Concentration in plasma
  concentration at 0.5 h: 2680 ± 130 ng/mL
[2]; plasma, 1.0 h, oral Panax notoginseng with Borneol, read-out: Concentration in plasma
  concentration at 1 h: 2420 ± 80 ng/mL
